Patent US11235023B2, “Beta-hairpin peptidomimetic with elastase inhibitory activity and aerosol dosage forms thereof” (POLYPHOR AG, priority 2016, dated 2022)
Non-standard residues stand in square brackets, D forms with d. Residues, ends and D or L forms follow the SMILES beside them. Gly(octyl) = CCCCCCCC[C@H](N)C(=O)O

Biological target: T1, human neutrophil elastase (Homo sapiens, UniProt P08246)
T1 construct: from tissue; host or cells: spontaneous sputum of patients with cystic fibrosis (PBS-soluble fraction)
T1 sequence (P08246 30-267): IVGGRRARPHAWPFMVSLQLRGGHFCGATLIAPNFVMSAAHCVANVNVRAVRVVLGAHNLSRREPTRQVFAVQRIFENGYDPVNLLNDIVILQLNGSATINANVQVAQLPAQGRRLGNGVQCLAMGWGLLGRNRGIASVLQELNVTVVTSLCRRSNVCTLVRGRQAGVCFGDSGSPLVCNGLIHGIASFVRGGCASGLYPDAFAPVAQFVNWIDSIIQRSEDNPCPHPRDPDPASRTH
Experiment: Phase-Ib study in CF patients, active neutrophil elastase in sputum by FRET assay
Assay type: in vivo
Procedure: The pharmacodynamic effect of ascending single doses of active compound was investigated by evaluation of neutrophil elastase (NE) activity in sputum using FRET (fluorescence resonance energy transfer) assay after PBS aliquotation and freezing.
On the day of screening, if possible, for baseline assessment of NE activity, on Day −1 as soon as possible after the subject's arrival at the study site for baseline assessment of NE activity, on Day 1 in the period of time between 1 h and 3 h after start of inhalation, and in the morning of Day 2, at approx. 24 h after start of inhalation.
Spontaneous sputum samples were collected in polystyrene Petri dishes and put on ice immediately. All processing steps had to be performed with cold reagents and on ice whenever possible. Plugs were separated from saliva, but the latter was not discarded. If a sputum sample was taken for both PK and NE activity in sputum analysis, the plug was split in 2 approximately equal parts. One part was processed for evaluation of NE activity in sputum the other one for PK analysis, as described above.
For evaluation of NE activity in sputum, at first, the weight of the sputum sample was determined and 8 mL cold phosphate-buffered saline (PBS) per gram purified sputum was added. The sample was vortexed for 30 s at room temperature (15-24° C.). Then, the soluble fraction was separated from the sputum pellet by centrifugation (10 min at 1000×g and 4° C.). The supernatant was transferred to a fresh tube.
Remaining insoluble particles were separated by a second centrifugation step at 3500×g for 15 min at 4° C. If the supernatant was not aliquoted immediately, the PBS/sputum supernatant was transferred to a fresh tube.
10 aliquots of 50 μL PBS/sputum were transferred into transfer tubes for evaluation. Moreover, 4 aliquots of 50 μL PBS/sputum were transferred into transfer tubes as backup. In case there was a leftover, the remaining volume was immediately transferred into a transfer tube for evaluation. Any leftover exceeding 2.0 mL was discarded.
The NE activity in sputum was evaluated by using a FRET elastase assay adapted from an assay described in Nature Protocols, 2008, 3, 991 (B. Korkmaz, S. Attucci, M. A. Juliano et al.) and validated by MLM Medical Labs GmbH, Mönchengladbach, Germany.
The assay is based on the reaction of human neutrophil elastase with the substrate 2Abz-Ala-Pro-Glu-Glu-Ile-Met-Arg-Arg-Gln-Tyr(3NO2)—OH (GeneCust Europe S. A., Ellange, Luxembourg, #P160301-SY452824). By adding the substrate solution the enzyme reaction is started and the elastase present in the samples reacts with added substrate. The product of the reaction is detected through fluorescence measurement and the initial reaction velocity is determined. The concentration of active elastase in the unknown samples is back-calculated using the calibration curve calculated from the standards.
An elastase reference stock solution (human neutrophil elastase [ELA2], Höltzel Diagnostika, Köln, Germany, #PN31255) with known enzymatic activity was prepared. The exact active elastase enzyme concentration was determined by titration against an alpha 1-antitrypsin solution (Athens Research and Technology, Athens, USA, #16-16-011609), with a defined concentration. The active elastase reference stock solution was adjusted by addition of PBS to a concentration of 3000 nM and aliquots were stored at −80° C.
The FRET assay was performed in 96 well white microtiter plates in total volume of 100 μL per well. PBS sputum dilutions of 1:5, 1:50 and 1:100 in elastase reaction buffer (50 mM HEPES, pH 7.4, 750 mM NaCl, 0.05% [v/v] NP-40) were prepared, 5 uL loaded per well and 90 uL elastase reaction buffer were added. A 5 mM substrate stock solution of 2Abz-Ala-Pro-Glu-Glu-Ile-Met-Arg-Arg-Gln-Tyr(3NO2)—OH in 30% (v/v) N,N-dimethylformamide/water was prepared and further diluted to 400 nM by addition of elastase reaction buffer. […]

**Q.** For `CCCCCCCC[C@@H]1NC(=O)[C@@H]2CCCN2C(=O)[C@H]2CCCN2C(=O)[C@H](Cc2ccc(O)cc2)NC(=O)[C@H](CCCCN)NC(=O)[C@H](CCC(N)=O)NC(=O)[C@@H]2CCCN2C(=O)[C@@H]2CCCN2C(=O)[C@H]([C@@H](C)CC)NC(=O)[C@H](CO)NC(=O)[C@H](C)NC(=O)[C@H]([C@@H](C)O)NC(=O)[C@H](CCC(=O)O)NC1=O` [active compound, cyclo(-OctG-Glu-Thr-Ala-Ser-Ile-Pro-Pro-Gln-Lys-Tyr-^DPro-Pro-)] (cyclo([Gly(octyl)]ETASIPPQKY[dP]P)), which “Mean concentration of active NE in sputum after single-dose inhalation” value (CF patients, 80-320 mg, extent independent of dose) is on record?
**A.** strongly decreased

**Q.** And the “Mean concentration of active NE in sputum at 24 h after inhalation” value (CF patients, high data variability)?
**A.** returned to baseline levels

**Q.** What about the “Mean (SD) concentration of active NE in sputum” value (“Mean (SD) concentration” for short) (dose level 1 (80 mg), 1-3 h after inhalation, predose 18823.6 (19758.72)) of the same compound?
**A.** 612.5 (1218.62) ng/mL

**Q.** What about the “Mean (SD) concentration” value (dose level 1 (80 mg), 24 h after inhalation) of the same compound?
**A.** 1467.7 (2154.43) ng/mL

**Q.** What about the “Mean (SD) concentration” value (dose level 2 (160 mg), 1-3 h after inhalation, predose 9548.7 (6222.55)) of the same compound?
**A.** 115.0 (0.00) ng/mL

**Q.** And the “Mean (SD) concentration” value (dose level 2 (160 mg), 24 h after inhalation)?
**A.** 16849.4 (23518.56) ng/mL

**Q.** And the “Mean (SD) concentration” value (dose level 3 (320 mg), 1-3 h after inhalation, predose 10480.7 (10528.00))?
**A.** 115.0 (0.00) ng/mL

**Q.** What about the “Mean (SD) concentration” value (dose level 3 (320 mg), 24 h after inhalation) of the same compound?
**A.** 7712.5 (11394.04) ng/mL

**Q.** And the “Inhibition of active elastase in sputum” value (over several hours after single dose, all dose groups (FIG. 5))?
**A.** > 90%
